Assay results taken from PubChem BioAssay AID248 (DTP/NCI, 2004).
Where “and” joins values, the source holds several entries; their conditions need not be identical. Equal values may be shown once. Inconclusive results and toxic doses are left out. No stated cut-off is given here; in the data, active means T/C of 150% or more; inactive means T/C below 125%.

Tested on: L1210 leukemia ip in BDF1 mice, survival T/C
Experiment: NCI In Vivo Anticancer Drug Screen. Data for tumor model L1210 Leukemia (intraperitoneal) in B6D2F1 (BDF1) mice
Details: endpoint: mean survival time, higher = longer survival
Outline: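 Tumor cells were implanted, animals were treated, and survival was followed. The result divides the treated measurement by the vehicle-control measurement.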

[1] = dose: 100.0 mg/kg/injection, schedule: Q01DX009 (ip), vehicle: saline
[2] = dose: 200.0 mg/kg/injection, schedule: Q01DX009 (ip), vehicle: saline
[3] = dose: 100.0 mg/kg/injection, schedule: Q04DX003 (ip), vehicle: saline
[4] = dose: 200.0 mg/kg/injection, schedule: Q04DX003 (ip), vehicle: saline
[5] = dose: 400.0 mg/kg/injection, schedule: Q04DX003 (ip), vehicle: saline
[6] = dose: 100.0 mg/kg/injection, schedule: Q01DX009 (ip), vehicle: Klucel (hydroxypropylcellulose) (HPC)
[7] = dose: 200.0 mg/kg/injection, schedule: Q01DX009 (ip), vehicle: Klucel (hydroxypropylcellulose) (HPC)
[8] = dose: 400.0 mg/kg/injection, schedule: Q01DX009 (ip), vehicle: Klucel (hydroxypropylcellulose) (HPC)
[9] = dose: 100.0 mg/kg/injection, schedule: Q01DX009 (ip), vehicle: saline with Tween-80
[10] = dose: 100.0 mg/kg/injection, schedule: Q04DX002 (ip), vehicle: Klucel (hydroxypropylcellulose) (HPC)
[11] = dose: 200.0 mg/kg/injection, schedule: Q04DX002 (ip), vehicle: Klucel (hydroxypropylcellulose) (HPC)
[12] = dose: 100.0 mg/kg/injection, schedule: Q04DX003 (ip), vehicle: Klucel (hydroxypropylcellulose) (HPC)
[13] = dose: 200.0 mg/kg/injection, schedule: Q04DX003 (ip), vehicle: Klucel (hydroxypropylcellulose) (HPC)
[14] = dose: 400.0 mg/kg/injection, schedule: Q04DX003 (ip), vehicle: Klucel (hydroxypropylcellulose) (HPC)

Measured: T/C

C1OC1C[N+]12CN3CN(CN(C3)C1)C2 (stereo not drawn)
inactive: dose: 100.0 mg/kg/injection, schedule: Q01DX005 (ip), vehicle: saline 92 % of control | [1] 109 % of control | dose: 200.0 mg/kg/injection, schedule: Q01DX005 (ip), vehicle: saline 113 % of control | [2] 106 % of control | dose: 400.0 mg/kg/injection, schedule: Q01DX005 (ip), vehicle: saline 103 % of control

Nc1nc2ncc(CNc3ccc(C(=O)NC(CCC(=O)O)C(=O)O)s3)nc2c(=O)[nH]1 (stereo not drawn)
inactive: dose: 100.0 mg/kg/injection, schedule: Q01DX001 (ip), vehicle: saline 95 % of control | dose: 200.0 mg/kg/injection, schedule: Q01DX001 (ip), vehicle: saline 101 % of control and 95 % of control | dose: 400.0 mg/kg/injection, schedule: Q01DX001 (ip), vehicle: saline 93 % of control and 90 % of control

N=Cc1c(O)[nH]c(=O)[nH]c1=O
inactive: [1] 95 % of control | [3] 97 % of control | [2] 90 % of control | [4] 93 % of control | dose: 400.0 mg/kg/injection, schedule: Q01DX009 (ip), vehicle: saline 91 % of control | [5] 95 % of control

CC(C)C(O)(C(=O)NN)C(=O)NN
inactive: [6] 100 % of control | [3] 105 % of control | [7] 90 % of control | [4] 96 % of control | [8] 93 % of control | [5] 103 % of control

O=[N+]([O-])CC(O)c1ccccc1Cl (stereo not drawn)
inactive: dose: 50.0 mg/kg/injection, schedule: Q01DX009 (ip), vehicle: saline with Tween-80 95 % of control | [9] 98 % of control

O=C(O)c1cc(Br)cc(Cl)c1Cl
inactive: [10] 100 % of control | [11] 103 % of control

COc1ccc(OC)c(C(Nc2ccc3cn[nH]c3c2)P(=O)(c2ccccc2)c2ccccc2)c1 (stereo not drawn)
inactive: dose: 100.0 mg/kg/injection, schedule: Q01DX001 (ip), vehicle: saline with Tween-80 93 % of control | [9] 95 % of control | dose: 100.0 mg/kg/injection, schedule: Q04DX002 (ip), vehicle: saline with Tween-80 103 % of control and 104 % of control | dose: 100.0 mg/kg/injection, schedule: Q04DX003 (ip), vehicle: saline with Tween-80 96 % of control | dose: 200.0 mg/kg/injection, schedule: Q01DX001 (ip), vehicle: saline with Tween-80 103 % of control | dose: 200.0 mg/kg/injection, schedule: Q01DX009 (ip), vehicle: saline with Tween-80 95 % of control | dose: 200.0 mg/kg/injection, schedule: Q04DX002 (ip), vehicle: saline with Tween-80 95 % of control and 90 % of control | dose: 200.0 mg/kg/injection, schedule: Q04DX003 (ip), vehicle: saline with Tween-80 95 % of control | dose: 400.0 mg/kg/injection, schedule: Q01DX001 (ip), vehicle: saline with Tween-80 92 % of control | dose: 400.0 mg/kg/injection, schedule: Q01DX009 (ip), vehicle: saline with Tween-80 97 % of control | dose: 400.0 mg/kg/injection, schedule: Q04DX002 (ip), vehicle: saline with Tween-80 93 % of control | dose: 400.0 mg/kg/injection, schedule: Q04DX003 (ip), vehicle: saline with Tween-80 92 % of control

CCC(C#N)C(=O)NC(N)=O (stereo not drawn)
inactive: [3] 97 % of control | [4] 92 % of control | [5] 91 % of control

CC(C)=CCNc1ncnc2nc[nH]c12
inactive: dose: 5.0 mg/kg/injection, schedule: Q01DX001 (ip), vehicle: saline 107 % of control | dose: 10.0 mg/kg/injection, schedule: Q01DX001 (ip), vehicle: saline 95 % of control | dose: 10.0 mg/kg/injection, schedule: Q01DX009 (ip), vehicle: saline with Tween-80 104 % of control | dose: 20.0 mg/kg/injection, schedule: Q01DX001 (ip), vehicle: saline 101 % of control | dose: 20.0 mg/kg/injection, schedule: Q01DX009 (ip), vehicle: saline with Tween-80 103 % of control | dose: 20.0 mg/kg/injection, schedule: Q04DX003 (ip), vehicle: saline with Tween-80 100 % of control | dose: 40.0 mg/kg/injection, schedule: Q01DX001 (ip), vehicle: saline 101 % of control | dose: 40.0 mg/kg/injection, schedule: Q01DX009 (ip), vehicle: saline with Tween-80 98 % of control

CC(C)(O)C(Cl)S(=O)c1ccccc1 (stereo not drawn)
inactive: dose: 75.0 mg/kg/injection, schedule: Q03DX002 (ip), vehicle: saline with Tween-80 113 % of control | dose: 300.0 mg/kg/injection, schedule: Q03DX002 (ip), vehicle: saline with Tween-80 117 % of control

O=C1OC2(CCCCC2)c2ccccc21
inactive: [12] 105 % of control | [13] 95 % of control | [14] 105 % of control

CCOc1ccccc1-n1c(-c2ccc([N+](=O)[O-])cc2)csc1=NC(=O)c1cccc([N+](=O)[O-])c1
inactive: dose: 100.0 mg/kg/injection, schedule: Q01DX001 (ip), vehicle: Klucel (hydroxypropylcellulose) (HPC) 101 % of control | [6] 96 % of control and 100 % of control and 106 % of control | [10] 94 % of control and 98 % of control | [12] 101 % of control | dose: 200.0 mg/kg/injection, schedule: Q01DX001 (ip), vehicle: Klucel (hydroxypropylcellulose) (HPC) 101 % of control | [7] 93 % of control (2×) and 95 % of control | [11] 97 % of control and 98 % of control | [13] 95 % of control | dose: 400.0 mg/kg/injection, schedule: Q01DX001 (ip), vehicle: Klucel (hydroxypropylcellulose) (HPC) 98 % of control | [8] 95 % of control and 97 % of control (2×) | dose: 400.0 mg/kg/injection, schedule: Q04DX002 (ip), vehicle: Klucel (hydroxypropylcellulose) (HPC) 96 % of control and 97 % of control | [14] 93 % of control

CC(C)NC(=O)CCSCCC(=O)NC(C)C
inactive: dose: 200.0 mg/kg/injection, schedule: Q04DX002 (ip), vehicle: other 94 % of control | dose: 400.0 mg/kg/injection, schedule: Q04DX002 (ip), vehicle: other 94 % of control

O=C(N/N=C/c1ccc(Cl)cc1Cl)c1cccc([N+](=O)[O-])c1
inactive: [6] 100 % of control | [7] 100 % of control | [8] 94 % of control

CCOC(=O)/C(C)=C\c1c(Br)cc(Br)c(N)c1Br
inactive: dose: 75.0 mg/kg/injection, schedule: Q01DX009 (ip), vehicle: Klucel (hydroxypropylcellulose) (HPC) 97 % of control | dose: 150.0 mg/kg/injection, schedule: Q01DX009 (ip), vehicle: Klucel (hydroxypropylcellulose) (HPC) 97 % of control | dose: 300.0 mg/kg/injection, schedule: Q01DX009 (ip), vehicle: Klucel (hydroxypropylcellulose) (HPC) 95 % of control

CCCCCCN(S(=O)(=O)c1ccc([N+](=O)[O-])cc1)S(=O)(=O)c1ccc([N+](=O)[O-])cc1
inactive: [12] 96 % of control | [13] 88 % of control | [14] 88 % of control

Cc1ccc(S(=O)(=O)N/N=C/C=C\C=N\NS(=O)(=O)c2ccc(C)cc2)cc1
inactive: [6] 98 % of control | [7] 96 % of control | [8] 90 % of control
